What follows are cell lines tested with CCn1c(-c2nonc2N)nc2c(C#CC(C)(C)O)ncc(OC[C@H]3CCCNC3)c21 + Nc1nc2[nH]cc(CCc3ccc(C(=O)N[C@@H](CCC(=O)O)C(=O)O)cc3)c2c(=O)[nH]1 [Pemetrexed] (partner 0.2 µM) (assay: relative viability (nuclei count vs DMSO), 5 days (fraction); higher = more cells survive). Details: first compound 0.01 µM.
Summary of the method: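 One day after seeding in 1536-well plates, lung cancer cell lines were dosed by pin tool. Dosing was either single-drug or a fixed anchor-drug dose plus five library-drug doses (not always all listed) in √10 steps. After 5 days, nuclei were stained in one fix-and-stain step and counted on 4× images, and relative viability is the nuclei count of treated wells over that of vehicle wells, given as the median of duplicate plates.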

Q: Which relative viability does the source give for COR-L 105 here?
A: 1.18

Q: For LOU-NH91, which relative viability is on record?
A: 0.403

Q: ChaGo-K-1 was tested. Which relative viability did it give?
A: 0.262

Q: With NCI-H2170 as the cell line, how does the relative viability read?
A: 0.278

Q: NCI-H2405 was tested. Which relative viability did it give?
A: 1.03

Q: For HOP-62, which relative viability is on record?
A: 0.289

Q: How did the relative viability turn out when LU99A was run?
A: 0.182

Q: Which relative viability does the source give for BEN here?
A: 0.779

Q: HARA was tested. Which relative viability did it give?
A: 0.24

Q: HCC-78 was tested. Which relative viability did it give?
A: 0.864

Q: For NCI-H322M, which relative viability is on record?
A: 0.634

Q: Which relative viability does the source give for LCLC-97TM1 here?
A: 0.169

Q: With NCI-H2009 as the cell line, how does the relative viability read?
A: 1.08

Q: How did the relative viability turn out when A-427 was run?
A: 0.925

Q: Which relative viability does the source give for NCI-H441 here?
A: 0.295

Q: NCI-H1734 was tested. Which relative viability did it give?
A: 0.389

Q: For NCI-H460, which relative viability is on record?
A: 0.0616

Q: How did the relative viability turn out when NCI-H2347 was run?
A: 0.46

Q: Which relative viability does the source give for SK-LU-1 here?
A: 0.869

Q: With NCI-H1395 as the cell line, how does the relative viability read?
A: 0.745

Q: 201T was tested. Which relative viability did it give?
A: 0.321

Q: For NCI-H1915, which relative viability is on record?
A: 0.452

Q: For HCC-827, which relative viability is on record?
A: 0.287

Q: For LXF-289, which relative viability is on record?
A: 0.922

Q: NCI-H23 was tested. Which relative viability did it give?
A: 0.647

Q: NCI-H647 was tested. Which relative viability did it give?
A: 0.196

Q: With CAL-12T as the cell line, how does the relative viability read?
A: 1.12

Q: With NCI-H1651 as the cell line, how does the relative viability read?
A: 0.653

Same assay, conditions: first compound 0.03162 µM

Q: How did the relative viability turn out when COR-L 105 was run?
A: 1.21

Q: How did the relative viability turn out when LOU-NH91 was run?
A: 0.366

Q: ChaGo-K-1 was tested. Which relative viability did it give?
A: 0.254

Q: For NCI-H2170, which relative viability is on record?
A: 0.286

Q: Which relative viability does the source give for NCI-H2405 here?
A: 1.12

Q: Which relative viability does the source give for HOP-62 here?
A: 0.407

Q: LU99A was tested. Which relative viability did it give?
A: 0.201

Q: For BEN, which relative viability is on record?
A: 0.821

Q: For HARA, which relative viability is on record?
A: 0.19

Q: How did the relative viability turn out when HCC-78 was run?
A: 0.92

Q: How did the relative viability turn out when NCI-H322M was run?
A: 0.571

Q: For LCLC-97TM1, which relative viability is on record?
A: 0.179

Q: For NCI-H2009, which relative viability is on record?
A: 1.09

Q: A-427 was tested. Which relative viability did it give?
A: 0.999

Q: With NCI-H441 as the cell line, how does the relative viability read?
A: 0.251

Q: Which relative viability does the source give for NCI-H1734 here?
A: 0.419

Q: For NCI-H460, which relative viability is on record?
A: 0.0628

Q: With NCI-H2347 as the cell line, how does the relative viability read?
A: 0.399

Q: For SK-LU-1, which relative viability is on record?
A: 0.985

Q: Which relative viability does the source give for NCI-H1395 here?
A: 0.811

Q: How did the relative viability turn out when 201T was run?
A: 0.317

Q: NCI-H1915 was tested. Which relative viability did it give?
A: 0.514

Q: For HCC-827, which relative viability is on record?
A: 0.315

Q: LXF-289 was tested. Which relative viability did it give?
A: 0.95

Q: For NCI-H23, which relative viability is on record?
A: 0.642

Q: Which relative viability does the source give for NCI-H647 here?
A: 0.168

Q: How did the relative viability turn out when CAL-12T was run?
A: 1.2

Q: How did the relative viability turn out when NCI-H1651 was run?
A: 0.605

Same assay, conditions: first compound 0.1 µM

Q: For COR-L 105, which relative viability is on record?
A: 1.18

Q: For LOU-NH91, which relative viability is on record?
A: 0.419

Q: Which relative viability does the source give for ChaGo-K-1 here?
A: 0.26

Q: NCI-H2170 was tested. Which relative viability did it give?
A: 0.266

Q: How did the relative viability turn out when NCI-H2405 was run?
A: 0.964

Q: Which relative viability does the source give for HOP-62 here?
A: 0.289

Q: For LU99A, which relative viability is on record?
A: 0.154

Q: BEN was tested. Which relative viability did it give?
A: 0.605

Q: How did the relative viability turn out when HARA was run?
A: 0.223

Q: How did the relative viability turn out when HCC-78 was run?
A: 0.952

Q: Which relative viability does the source give for NCI-H322M here?
A: 0.556

Q: LCLC-97TM1 was tested. Which relative viability did it give?
A: 0.141

Q: Which relative viability does the source give for NCI-H2009 here?
A: 1.06

Q: How did the relative viability turn out when A-427 was run?
A: 0.876

Q: How did the relative viability turn out when NCI-H441 was run?
A: 0.228

Q: Which relative viability does the source give for NCI-H1734 here?
A: 0.385

Q: How did the relative viability turn out when NCI-H460 was run?
A: 0.063

Q: With NCI-H2347 as the cell line, how does the relative viability read?
A: 0.385

Q: SK-LU-1 was tested. Which relative viability did it give?
A: 0.823

Q: With NCI-H1395 as the cell line, how does the relative viability read?
A: 0.793

Q: For 201T, which relative viability is on record?
A: 0.343

Q: With NCI-H1915 as the cell line, how does the relative viability read?
A: 0.487

Q: Which relative viability does the source give for HCC-827 here?
A: 0.241

Q: For LXF-289, which relative viability is on record?
A: 0.925

Q: How did the relative viability turn out when NCI-H23 was run?
A: 0.58

Q: NCI-H647 was tested. Which relative viability did it give?
A: 0.179

Q: CAL-12T was tested. Which relative viability did it give?
A: 1.13

Q: How did the relative viability turn out when NCI-H1651 was run?
A: 0.597

Same assay, conditions: first compound 0.3162 µM

Q: How did the relative viability turn out when COR-L 105 was run?
A: 1.23

Q: For LOU-NH91, which relative viability is on record?
A: 0.4

Q: With ChaGo-K-1 as the cell line, how does the relative viability read?
A: 0.258

Q: How did the relative viability turn out when NCI-H2170 was run?
A: 0.271

Q: How did the relative viability turn out when NCI-H2405 was run?
A: 0.96

Q: How did the relative viability turn out when HOP-62 was run?
A: 0.288

Q: Which relative viability does the source give for LU99A here?
A: 0.141

Q: With BEN as the cell line, how does the relative viability read?
A: 0.753

Q: HARA was tested. Which relative viability did it give?
A: 0.247

Q: Which relative viability does the source give for HCC-78 here?
A: 0.871

Q: With NCI-H322M as the cell line, how does the relative viability read?
A: 0.568

Q: With LCLC-97TM1 as the cell line, how does the relative viability read?
A: 0.147

Q: How did the relative viability turn out when NCI-H2009 was run?
A: 1.14

Q: How did the relative viability turn out when A-427 was run?
A: 0.91

Q: With NCI-H441 as the cell line, how does the relative viability read?
A: 0.234

Q: NCI-H1734 was tested. Which relative viability did it give?
A: 0.391

Q: NCI-H460 was tested. Which relative viability did it give?
A: 0.0642

Q: With NCI-H2347 as the cell line, how does the relative viability read?
A: 0.432

Q: SK-LU-1 was tested. Which relative viability did it give?
A: 0.929

Q: NCI-H1395 was tested. Which relative viability did it give?
A: 0.647

Q: How did the relative viability turn out when 201T was run?
A: 0.333

Q: For NCI-H1915, which relative viability is on record?
A: 0.444

Q: With HCC-827 as the cell line, how does the relative viability read?
A: 0.249

Q: For LXF-289, which relative viability is on record?
A: 0.84

Q: Which relative viability does the source give for NCI-H23 here?
A: 0.579

Q: Which relative viability does the source give for NCI-H647 here?
A: 0.163

Q: Which relative viability does the source give for CAL-12T here?
A: 0.994

Q: For NCI-H1651, which relative viability is on record?
A: 0.574

Same assay, conditions: first compound 1 µM

Q: Which relative viability does the source give for COR-L 105 here?
A: 1.3

Q: For LOU-NH91, which relative viability is on record?
A: 0.399

Q: How did the relative viability turn out when ChaGo-K-1 was run?
A: 0.248

Q: How did the relative viability turn out when NCI-H2170 was run?
A: 0.234

Q: How did the relative viability turn out when NCI-H2405 was run?
A: 1.13

Q: HOP-62 was tested. Which relative viability did it give?
A: 0.286

Q: For LU99A, which relative viability is on record?
A: 0.193

Q: BEN was tested. Which relative viability did it give?
A: 0.773

Q: For HARA, which relative viability is on record?
A: 0.249

Q: With HCC-78 as the cell line, how does the relative viability read?
A: 0.669

Q: NCI-H322M was tested. Which relative viability did it give?
A: 0.571

Q: LCLC-97TM1 was tested. Which relative viability did it give?
A: 0.175

Q: For NCI-H2009, which relative viability is on record?
A: 1.06

Q: With A-427 as the cell line, how does the relative viability read?
A: 1.08

Q: Which relative viability does the source give for NCI-H441 here?
A: 0.272

Q: With NCI-H1734 as the cell line, how does the relative viability read?
A: 0.431

Q: How did the relative viability turn out when NCI-H460 was run?
A: 0.0565

Q: Which relative viability does the source give for NCI-H2347 here?
A: 0.39

Q: Which relative viability does the source give for SK-LU-1 here?
A: 0.855

Q: For NCI-H1395, which relative viability is on record?
A: 0.769

— the supplement of paper PMC10307832
